From article PMC5704035 (Biochemistry and Biophysics Reports, 2017)

Target: AzoA (Enterococcus faecalis, UniProt Q831B2)
Experiment: spectroscopy of purified protein, FMN to protein molar ratio
Type: binding
Conditions: co-purified flavin; two sites per homodimer

Sequence of AzoA (Q831B2 whole entry): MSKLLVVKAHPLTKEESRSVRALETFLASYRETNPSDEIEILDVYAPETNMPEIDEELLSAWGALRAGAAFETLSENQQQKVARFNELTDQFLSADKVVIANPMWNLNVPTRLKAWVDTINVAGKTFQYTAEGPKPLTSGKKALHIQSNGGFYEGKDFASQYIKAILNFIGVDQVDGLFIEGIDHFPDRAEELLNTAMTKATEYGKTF

Cc1cc2nc3c(=O)[nH]c(=O)nc-3n(C[C@H](O)[C@H](O)[C@H](O)COP(=O)(O)O)c2cc1C [FMN]
spectroscopy of purified protein, FMN to protein molar ratio: suggesting that two FMN molecules bind to an AzoA (wild-type and mutants)
